Reference: PubChem BioAssay (NCI)
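Step 1: Grow cells in 96-well plates. Step 2: Expose to compound for 48 hours at 5 concentrations. Step 3: Interpolate endpoints linearly; if unreached, use highest concentration. GI50: concentration for 50% inhibition of growth. At the TGI there is no net growth.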

What was measured:
Assay in all cases: NCI-60 cell line screen, 48 h
[1] = test system: OVCAR-5 ovarian
[2] = test system: U251 CNS
[3] = test system: NCI/ADR-RES ovarian
[4] = test system: 786-0 renal
[5] = test system: RXF 393 renal
[6] = test system: OVCAR-4 ovarian
[7] = test system: HS 578T breast
[8] = test system: HL-60(TB) leukemia
[9] = test system: NCI-H226 lung
[10] = test system: DU-145 prostate
[11] = test system: BT-549 breast
[12] = test system: SK-OV-3 ovarian
[13] = test system: SW-620 colon
[14] = test system: KM12 colon
[15] = test system: HT29 colon
[16] = test system: SK-MEL-2 melanoma
[17] = test system: UO-31 renal
[18] = test system: SK-MEL-5 melanoma
[19] = test system: SF-268 CNS
[20] = test system: SF-539 CNS
[21] = test system: PC-3 prostate
[22] = test system: OVCAR-3 ovarian
[23] = test system: HCC-2998 colon
[24] = test system: MCF7 breast
[25] = test system: HOP-62 NSCLC
[26] = test system: SK-MEL-28 melanoma
[27] = test system: IGROV1 ovarian
[28] = test system: HCT-116 colon
[29] = test system: UACC-257 melanoma
[30] = test system: ACHN renal
[31] = test system: HCT-15 colon
[32] = test system: M14 melanoma
[33] = test system: TK-10 renal
[34] = test system: SF-295 CNS
[35] = test system: CCRF-CEM leukemia
[36] = test system: CAKI-1 renal
[37] = test system: MOLT-4 leukemia
[38] = test system: OVCAR-8 ovarian
[39] = test system: SN12C renal
[40] = test system: HOP-92 NSCLC
[41] = test system: K-562 leukemia
[42] = test system: NCI-H522 lung
[43] = test system: LOX IMVI melanoma
[44] = test system: COLO 205 colon
[45] = test system: SNB-19 CNS
[46] = test system: SNB-75 CNS
[47] = test system: MDA-MB-435
[48] = test system: A549 NSCLC
[49] = test system: A498 renal
[50] = test system: RPMI-8226 leukemia
[51] = test system: UACC-62 melanoma
[52] = test system: MDA-MB-231 breast
[53] = test system: MALME-3M melanoma
[54] = test system: T-47D breast
[55] = test system: NCI-H23 lung
[56] = test system: NCI-H460 lung
[57] = test system: SR leukemia

For `CCN(Cc1ccccc1Cl)c1ccc(CO)c(Cl)c1`, the GI50 [1] was 0.206 µM, the TGI [1] was 0.789 µM and the GI50 [2] was 0.943 µM. It also gave a TGI [2] of 15 µM, a GI50 [3] of 12.2 µM and a TGI [3] of 26.5 µM. It also gave a GI50 [4] of 12.8 µM, a TGI [4] of 26.1 µM and a GI50 [5] of 3.75 µM. The TGI [5] was 20 µM, the GI50 [6] was 0.368 µM and the TGI [6] was 9.36 µM. It also gave a GI50 [7] of 16 µM, a TGI [7] of 38.7 µM and a GI50 [8] of 13.9 µM. For the same compound, the TGI [8] was 33.8 µM, the GI50 [9] was 0.0295 µM and the TGI [9] was 0.122 µM. For the same compound, the GI50 [10] was 14 µM, the TGI [10] was 27.8 µM and the GI50 [11] was 15.8 µM. It also gave a TGI [11] of 29.9 µM, a GI50 [12] of 8.82 µM and a TGI [12] of 21.2 µM. For the same compound, the GI50 [13] was 1.61 µM, the TGI [13] was 16.8 µM and the GI50 [14] was 13.4 µM. It also gave a TGI [14] of 28.7 µM, a GI50 [15] of 5.94 µM and a TGI [15] of 20 µM. It also gave a GI50 [16] of 2.39 µM, a TGI [16] of 16.1 µM and a GI50 [17] of 9.15 µM. The TGI [17] was 24.9 µM, the GI50 [18] was 4.11 µM and the TGI [18] was 17.1 µM. It also gave a GI50 [19] of 15.5 µM, a TGI [19] of 30 µM and a GI50 [20] of 15 µM. It also gave a TGI [20] of 29 µM, a GI50 [21] of 12.5 µM and a TGI [21] of 25.8 µM. It also gave a GI50 [22] of 0.774 µM, a TGI [22] of 4.32 µM and a GI50 [23] of 11.9 µM. It also gave a TGI [23] of 25.4 µM, a GI50 [24] of 0.442 µM and a TGI [24] of 12.1 µM. For the same compound, the GI50 [25] was 2.46 µM, the TGI [25] was 16.1 µM and the GI50 [26] was 11.8 µM. For the same compound, the TGI [26] was 24.7 µM, the GI50 [27] was under 0.0418 µM and the TGI [27] was 0.138 µM. It also gave a GI50 [28] of 0.131 µM, a TGI [28] of 11.8 µM and a GI50 [29] of 0.094 µM. For the same compound, the TGI [29] was 0.461 µM, the GI50 [30] was 13.7 µM and the TGI [30] was 27.3 µM. For the same compound, the GI50 [31] was 10.2 µM, the TGI [31] was 24 µM and the GI50 [32] was 15.3 µM. It also gave a TGI [32] of 31.7 µM, a GI50 [33] of under 0.0334 µM and a TGI [33] of 0.257 µM. The GI50 [34] was 0.775 µM, the TGI [34] was 7.45 µM and the GI50 [35] was 16.6 µM. The TGI [35] was 38.3 µM, the GI50 [36] was 5.82 µM and the TGI [36] was 21 µM. For the same compound, the GI50 [37] was 15.8 µM, the TGI [37] was 38.1 µM and the GI50 [38] was 12.8 µM. For the same compound, the TGI [38] was 27.1 µM, the GI50 [39] was 11.5 µM and the TGI [39] was 24 µM. It also gave a GI50 [40] of 0.932 µM, a TGI [40] of 8.25 µM and a GI50 [41] of 1.63 µM. The TGI [41] was 14.6 µM, the GI50 [42] was 11.5 µM and the TGI [42] was 25.4 µM. The GI50 [43] was 16 µM, the TGI [43] was 30.5 µM and the GI50 [44] was 5.72 µM. The TGI [44] was 16.3 µM, the GI50 [45] was 13.2 µM and the TGI [45] was 26.3 µM. For the same compound, the GI50 [46] was 7.13 µM, the TGI [46] was 21.8 µM and the GI50 [47] was 9.19 µM. It also gave a TGI [47] of 23.9 µM, a GI50 [48] of 3.06 µM and a TGI [48] of 18.7 µM. The GI50 [49] was under 0.0219 µM, the TGI [49] was 0.0672 µM and the GI50 [50] was 1.91 µM. For the same compound, the TGI [50] was 19 µM, the GI50 [51] was 0.152 µM and the TGI [51] was 1.63 µM. For the same compound, the GI50 [52] was 13.1 µM, the TGI [52] was 26.2 µM and the GI50 [53] was 13.6 µM. The TGI [53] was 28.1 µM, the GI50 [54] was 0.06 µM and the TGI [54] was 0.522 µM. The GI50 [55] was 7.44 µM, the TGI [55] was 22.6 µM and the GI50 [56] was 0.296 µM. The TGI [56] was 11.1 µM, the GI50 [57] was 17.3 µM and the TGI [57] was 45.1 µM.

`O=C(NNC(=S)Nc1ccc(Br)cc1)c1cc(-c2ccccc2)nc2ccccc12` was tested, and the TGI [1] was 79.3 µM, the TGI [2] was 32.5 µM and the TGI [3] was 51.8 µM. For the same compound, the TGI [4] was 33.2 µM, the TGI [5] was 40.4 µM and the TGI [6] was 46.5 µM. It also gave a TGI [7] of 94.2 µM, a TGI [9] of 73.7 µM and a TGI [10] of 40.8 µM. The TGI [11] was 60.9 µM, the TGI [12] was 47.5 µM and the TGI [13] was 46.9 µM. The TGI [14] was over 100 µM, the TGI [15] was 82.4 µM and the TGI [16] was 41.7 µM. For the same compound, the TGI [17] was 36.4 µM, the TGI [18] was 30.5 µM and the TGI [19] was over 100 µM. The TGI [20] was 31.3 µM, the TGI [21] was 46.3 µM and the TGI [22] was 33.1 µM. The TGI [23] was 30.8 µM, the TGI [24] was 47.1 µM and the TGI [25] was 42 µM. For the same compound, the TGI [26] was 53 µM, the TGI [27] was over 100 µM and the TGI [28] was 30.4 µM. It also gave a TGI [29] of 61.4 µM, a TGI [30] of over 100 µM and a TGI [31] of 66.9 µM. For the same compound, the TGI [32] was 34.8 µM, the TGI [33] was 42.2 µM and the TGI [34] was 38.3 µM. The TGI [35] was 42.8 µM, the TGI [36] was 72.6 µM and the TGI [37] was 52.9 µM. For the same compound, the TGI [38] was 57.7 µM, the TGI [39] was 37.1 µM and the TGI [40] was 43.4 µM. The TGI [41] was 89.8 µM, the TGI [42] was 59 µM and the TGI [44] was 53 µM. It also gave a TGI [45] of over 100 µM, a TGI [46] of over 100 µM and a TGI [47] of 43.2 µM. For the same compound, the TGI [48] was 58 µM, the TGI [49] was 28.6 µM and the TGI [50] was 53.7 µM. The TGI [51] was 50.2 µM, the TGI [52] was 65.9 µM and the TGI [53] was 43.6 µM. For the same compound, the TGI [54] was 60.9 µM, the TGI [55] was 55.8 µM and the TGI [56] was 43.5 µM. It also gave a TGI [57] of 40.6 µM.
